Measurements from ChEMBL document CHEMBL1131542, “A potent dipeptide inhibitor of dipeptidyl peptidase IV” (Bioorg Med Chem Lett, 1998).
Square brackets hold non-standard residues; d marks the D form. Peptide text beside a SMILES is read from it. Tic = O=C(O)[C@@H]1Cc2ccccc2CN1

Key:
[1] = target: T1, Dipeptidyl peptidase 4 (Homo sapiens, UniProt P27487); experiment: Percent inhibition of Dipeptidyl peptidase IV (DPP IV) at a concentration of 10 uM
[2] = target: T1, Dipeptidyl peptidase 4; experiment: Percent inhibition against Dipeptidyl peptidase IV (DPP IV) at a concentration of 1 uM

T1 sequence (P27487 whole entry, looked up): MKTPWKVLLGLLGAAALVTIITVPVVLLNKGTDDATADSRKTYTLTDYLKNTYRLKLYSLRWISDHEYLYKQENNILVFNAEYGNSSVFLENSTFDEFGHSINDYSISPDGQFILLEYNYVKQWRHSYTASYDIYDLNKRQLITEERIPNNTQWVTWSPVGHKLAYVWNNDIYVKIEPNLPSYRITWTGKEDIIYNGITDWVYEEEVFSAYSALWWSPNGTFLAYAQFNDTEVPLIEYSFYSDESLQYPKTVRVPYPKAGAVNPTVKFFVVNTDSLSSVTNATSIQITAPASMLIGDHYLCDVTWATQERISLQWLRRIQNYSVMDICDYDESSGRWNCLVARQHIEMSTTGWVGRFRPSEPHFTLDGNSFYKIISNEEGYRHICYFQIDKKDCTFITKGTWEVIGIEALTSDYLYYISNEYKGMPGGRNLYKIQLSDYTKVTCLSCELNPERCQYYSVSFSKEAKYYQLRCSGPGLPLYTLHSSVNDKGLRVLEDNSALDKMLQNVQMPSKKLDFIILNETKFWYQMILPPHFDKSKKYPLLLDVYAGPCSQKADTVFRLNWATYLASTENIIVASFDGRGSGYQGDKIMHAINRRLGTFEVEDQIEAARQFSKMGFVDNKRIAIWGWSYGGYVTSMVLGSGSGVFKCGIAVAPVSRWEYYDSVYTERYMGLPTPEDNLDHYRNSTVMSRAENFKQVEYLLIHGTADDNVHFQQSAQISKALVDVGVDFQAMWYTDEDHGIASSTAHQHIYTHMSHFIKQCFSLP

inhibition [1] [%] | inhibition [2] [%] | SMILES
32 | – | CC[C@@H](C)[C@H](NC(=O)[C@@H]1Cc2ccccc2CN1C(=O)[C@@H](N)Cc1c[nH]c2ccccc12)C(=O)O
– | 2 | CC[C@H](C)[C@H](NC(=O)[C@H](Cc1c[nH]cn1)NC(=O)CNC(=O)[C@H](CCC(=O)O)NC(=O)[C@H](CCC(N)=O)NC(=O)[C@H](CC(=O)O)NC(=O)[C@H](CC(N)=O)NC(=O)[C@H](CCCN=C(N)N)NC(=O)[C@H](C)NC(=O)[C@@H]1Cc2ccccc2CN1C(=O)[C@H]1CCCN1)C(=O)N[C@@H](CC(C)C)C(=O)N[C@@H](CCCCN)C(=O)N[C@@H](CCSC)C(=O)N[C@@H](Cc1ccccc1)C(=O)N1CCC[C@H]1C(=O)N[C@@H](CO)C(=O)N[C@H](C(=O)N[C@@H](Cc1c[nH]c2ccccc12)C(=O)N[C@@H](Cc1ccc(O)cc1)C(=O)N[C@H](C(=O)O)C(C)C)[C@@H](C)O
37 | – | C[C@H](O)[C@H](NC(=O)[C@@H]1Cc2ccccc2CN1C(=O)[C@@H](N)Cc1c[nH]c2ccccc12)C(=O)O
– | 1 | CC[C@H](C)[C@H](NC(=O)[C@H](Cc1c[nH]cn1)NC(=O)CNC(=O)[C@H](CCC(=O)O)NC(=O)[C@H](CCC(N)=O)NC(=O)[C@H](CC(=O)O)NC(=O)[C@H](CC(N)=O)NC(=O)[C@H](CCCN=C(N)N)NC(=O)[C@H](C)NC(=O)[C@@H]1Cc2ccccc2CN1C(=O)[C@H](C)N)C(=O)N[C@@H](CC(C)C)C(=O)N[C@@H](CCCCN)C(=O)N[C@@H](CCSC)C(=O)N[C@@H](Cc1ccccc1)C(=O)N1CCC[C@H]1C(=O)N[C@@H](CO)C(=O)N[C@H](C(=O)N[C@@H](Cc1c[nH]c2ccccc12)C(=O)N[C@@H](Cc1ccc(O)cc1)C(=O)N[C@H](C(=O)O)C(C)C)[C@@H](C)O (H-A[Tic]ARNDQEGHILKMFPSTWYV-OH)
– | 9 | CC[C@H](C)[C@H](NC(=O)[C@H](Cc1c[nH]cn1)NC(=O)CNC(=O)[C@H](CCC(=O)O)NC(=O)[C@H](CCC(N)=O)NC(=O)[C@H](CC(=O)O)NC(=O)[C@H](CC(N)=O)NC(=O)[C@H](CCCN=C(N)N)NC(=O)[C@H](C)NC(=O)[C@@H]1Cc2ccccc2CN1C(=O)[C@@H](N)CS)C(=O)N[C@@H](CC(C)C)C(=O)N[C@@H](CCCCN)C(=O)N[C@@H](CCSC)C(=O)N[C@@H](Cc1ccccc1)C(=O)N1CCC[C@H]1C(=O)N[C@@H](CO)C(=O)N[C@H](C(=O)N[C@@H](Cc1c[nH]c2ccccc12)C(=O)N[C@@H](Cc1ccc(O)cc1)C(=O)N[C@H](C(=O)O)C(C)C)[C@@H](C)O (H-C[Tic]ARNDQEGHILKMFPSTWYV-OH)
– | 8 | CC[C@H](C)[C@H](NC(=O)[C@H](Cc1c[nH]cn1)NC(=O)CNC(=O)[C@H](CCC(=O)O)NC(=O)[C@H](CCC(N)=O)NC(=O)[C@H](CC(=O)O)NC(=O)[C@H](CC(N)=O)NC(=O)[C@H](CCCN=C(N)N)NC(=O)[C@H](C)NC(=O)[C@@H]1Cc2ccccc2CN1C(=O)[C@@H](N)CC(=O)O)C(=O)N[C@@H](CC(C)C)C(=O)N[C@@H](CCCCN)C(=O)N[C@@H](CCSC)C(=O)N[C@@H](Cc1ccccc1)C(=O)N1CCC[C@H]1C(=O)N[C@@H](CO)C(=O)N[C@H](C(=O)N[C@@H](Cc1c[nH]c2ccccc12)C(=O)N[C@@H](Cc1ccc(O)cc1)C(=O)N[C@H](C(=O)O)C(C)C)[C@@H](C)O (H-D[Tic]ARNDQEGHILKMFPSTWYV-OH)
– | 4 | CC[C@H](C)[C@H](NC(=O)[C@H](Cc1c[nH]cn1)NC(=O)CNC(=O)[C@H](CCC(=O)O)NC(=O)[C@H](CCC(N)=O)NC(=O)[C@H](CC(=O)O)NC(=O)[C@H](CC(N)=O)NC(=O)[C@H](CCCN=C(N)N)NC(=O)[C@H](C)NC(=O)[C@@H]1Cc2ccccc2CN1C(=O)[C@@H](N)CCC(=O)O)C(=O)N[C@@H](CC(C)C)C(=O)N[C@@H](CCCCN)C(=O)N[C@@H](CCSC)C(=O)N[C@@H](Cc1ccccc1)C(=O)N1CCC[C@H]1C(=O)N[C@@H](CO)C(=O)N[C@H](C(=O)N[C@@H](Cc1c[nH]c2ccccc12)C(=O)N[C@@H](Cc1ccc(O)cc1)C(=O)N[C@H](C(=O)O)C(C)C)[C@@H](C)O (H-E[Tic]ARNDQEGHILKMFPSTWYV-OH)
– | 4 | CC[C@H](C)[C@H](NC(=O)[C@H](Cc1c[nH]cn1)NC(=O)CNC(=O)[C@H](CCC(=O)O)NC(=O)[C@H](CCC(N)=O)NC(=O)[C@H](CC(=O)O)NC(=O)[C@H](CC(N)=O)NC(=O)[C@H](CCCN=C(N)N)NC(=O)[C@H](C)NC(=O)[C@@H]1Cc2ccccc2CN1C(=O)[C@@H](N)Cc1ccccc1)C(=O)N[C@@H](CC(C)C)C(=O)N[C@@H](CCCCN)C(=O)N[C@@H](CCSC)C(=O)N[C@@H](Cc1ccccc1)C(=O)N1CCC[C@H]1C(=O)N[C@@H](CO)C(=O)N[C@H](C(=O)N[C@@H](Cc1c[nH]c2ccccc12)C(=O)N[C@@H](Cc1ccc(O)cc1)C(=O)N[C@H](C(=O)O)C(C)C)[C@@H](C)O (H-F[Tic]ARNDQEGHILKMFPSTWYV-OH)
– | 0 | CC[C@H](C)[C@H](NC(=O)[C@H](Cc1c[nH]cn1)NC(=O)CNC(=O)[C@H](CCC(=O)O)NC(=O)[C@H](CCC(N)=O)NC(=O)[C@H](CC(=O)O)NC(=O)[C@H](CC(N)=O)NC(=O)[C@H](CCCN=C(N)N)NC(=O)[C@H](C)NC(=O)[C@@H]1Cc2ccccc2CN1C(=O)CN)C(=O)N[C@@H](CC(C)C)C(=O)N[C@@H](CCCCN)C(=O)N[C@@H](CCSC)C(=O)N[C@@H](Cc1ccccc1)C(=O)N1CCC[C@H]1C(=O)N[C@@H](CO)C(=O)N[C@H](C(=O)N[C@@H](Cc1c[nH]c2ccccc12)C(=O)N[C@@H](Cc1ccc(O)cc1)C(=O)N[C@H](C(=O)O)C(C)C)[C@@H](C)O (H-G[Tic]ARNDQEGHILKMFPSTWYV-OH)
– | 7 | CC[C@H](C)[C@H](NC(=O)[C@H](Cc1c[nH]cn1)NC(=O)CNC(=O)[C@H](CCC(=O)O)NC(=O)[C@H](CCC(N)=O)NC(=O)[C@H](CC(=O)O)NC(=O)[C@H](CC(N)=O)NC(=O)[C@H](CCCN=C(N)N)NC(=O)[C@H](C)NC(=O)[C@@H]1Cc2ccccc2CN1C(=O)[C@@H](N)Cc1c[nH]cn1)C(=O)N[C@@H](CC(C)C)C(=O)N[C@@H](CCCCN)C(=O)N[C@@H](CCSC)C(=O)N[C@@H](Cc1ccccc1)C(=O)N1CCC[C@H]1C(=O)N[C@@H](CO)C(=O)N[C@H](C(=O)N[C@@H](Cc1c[nH]c2ccccc12)C(=O)N[C@@H](Cc1ccc(O)cc1)C(=O)N[C@H](C(=O)O)C(C)C)[C@@H](C)O (H-H[Tic]ARNDQEGHILKMFPSTWYV-OH)
3 | – | N[C@@H](Cc1c[nH]c2ccccc12)C(=O)N[C@@H](CCC(=O)O)C(=O)O (H-Trp-Glu-OH)
0 | – | N[C@@H](Cc1c[nH]c2ccccc12)C(=O)N[C@@H](Cc1ccccc1)C(=O)O (H-Trp-Phe-OH)
15 | – | N[C@@H](Cc1c[nH]c2ccccc12)C(=O)N1CCC[C@H]1C(=O)O (H-Trp-Pro-OH)
2 | – | N[C@@H](Cc1c[nH]c2ccccc12)C(=O)N[C@@H](Cc1c[nH]c2ccccc12)C(=O)O (H-Trp-Trp-OH)
10 | – | N[C@@H](Cc1c[nH]c2ccccc12)C(=O)N[C@@H](Cc1ccc(O)cc1)C(=O)O (H-Trp-Tyr-OH)
4 | – | CC(C)[C@H](NC(=O)[C@@H](N)Cc1c[nH]c2ccccc12)C(=O)O (H-Trp-Val-OH)

inhibition [1] [%] | inhibition [2] [%] | SMILES
43 | – | C[C@H](NC(=O)[C@@H]1Cc2ccccc2CN1C(=O)[C@@H](N)Cc1c[nH]c2ccccc12)C(=O)O (H-Trp-[Tic]-Ala-OH)
38 | – | NC(N)=NCCC[C@H](NC(=O)[C@@H]1Cc2ccccc2CN1C(=O)[C@@H](N)Cc1c[nH]c2ccccc12)C(=O)O (H-Trp-[Tic]-Arg-OH)
46 | – | NC(=O)C[C@H](NC(=O)[C@@H]1Cc2ccccc2CN1C(=O)[C@@H](N)Cc1c[nH]c2ccccc12)C(=O)O (H-Trp-[Tic]-Asn-OH)
38 | – | N[C@@H](Cc1c[nH]c2ccccc12)C(=O)N1Cc2ccccc2C[C@H]1C(=O)N[C@@H](CC(=O)O)C(=O)O (H-Trp-[Tic]-Asp-OH)
49 | – | N[C@@H](Cc1c[nH]c2ccccc12)C(=O)N1Cc2ccccc2C[C@H]1C(=O)N[C@@H](CS)C(=O)O (H-Trp-[Tic]-Cys-OH)
49 | – | NC(=O)CC[C@H](NC(=O)[C@@H]1Cc2ccccc2CN1C(=O)[C@@H](N)Cc1c[nH]c2ccccc12)C(=O)O (H-Trp-[Tic]-Gln-OH)
34 | – | N[C@@H](Cc1c[nH]c2ccccc12)C(=O)N1Cc2ccccc2C[C@H]1C(=O)NCC(=O)O (H-Trp-[Tic]-Gly-OH)
35 | – | N[C@@H](Cc1c[nH]c2ccccc12)C(=O)N1Cc2ccccc2C[C@H]1C(=O)N[C@@H](Cc1c[nH]cn1)C(=O)O (H-Trp-[Tic]-His-OH)
25 | – | CC(C)C[C@H](NC(=O)[C@@H]1Cc2ccccc2CN1C(=O)[C@@H](N)Cc1c[nH]c2ccccc12)C(=O)O (H-Trp-[Tic]-Leu-OH)
27 | – | NCCCC[C@H](NC(=O)[C@@H]1Cc2ccccc2CN1C(=O)[C@@H](N)Cc1c[nH]c2ccccc12)C(=O)O (H-Trp-[Tic]-Lys-OH)
43 | – | CSCC[C@H](NC(=O)[C@@H]1Cc2ccccc2CN1C(=O)[C@@H](N)Cc1c[nH]c2ccccc12)C(=O)O (H-Trp-[Tic]-Met-OH)
29 | – | N[C@@H](Cc1c[nH]c2ccccc12)C(=O)N1Cc2ccccc2C[C@H]1C(=O)N[C@@H](Cc1ccccc1)C(=O)O (H-Trp-[Tic]-Phe-OH)
20 | – | N[C@@H](Cc1c[nH]c2ccccc12)C(=O)N1Cc2ccccc2C[C@H]1C(=O)N1CCC[C@H]1C(=O)O (H-Trp-[Tic]-Pro-OH)
37 | – | N[C@@H](Cc1c[nH]c2ccccc12)C(=O)N1Cc2ccccc2C[C@H]1C(=O)N[C@@H](Cc1c[nH]c2ccccc12)C(=O)O (H-Trp-[Tic]-Trp-OH)
36 | – | N[C@@H](Cc1c[nH]c2ccccc12)C(=O)N1Cc2ccccc2C[C@H]1C(=O)N[C@@H](Cc1ccc(O)cc1)C(=O)O (H-Trp-[Tic]-Tyr-OH)
19 | – | CC(C)[C@H](NC(=O)[C@@H]1Cc2ccccc2CN1C(=O)[C@@H](N)Cc1c[nH]c2ccccc12)C(=O)O (H-Trp-[Tic]-Val-OH)
